Results reported in ChEMBL document CHEMBL5236587, “Discovery of oxazoline enhancers of cellular progranulin release” (Bioorg Med Chem Lett, 2023).
pEC50, pIC50: −log10 of the molar value.

Columns and labels:
[1] = Induction of progranulin secretion in mouse BV-2 cells; format: functional, cell-based
[2] = molecular target: Voltage-gated inwardly rectifying potassium channel KCNH2 (Homo sapiens, UniProt Q12809); assay: Inhibition of human ERG; format: toxicity
[3] = Volume of distribution at steady state in mouse at 10 mg/kg, po or 1 mg/kg, iv; format: ADME, organism-based; settings: in vivo
[4] = Metabolic stability in human hepatocytes assessed as half life measured upto 120 mins; format: ADME, cell-based, Hepatocyte
[5] = Metabolic stability in human hepatocytes assessed as intrinsic clearance; format: ADME, cell-based, Hepatocyte
[6] = Clearance in mouse at 10 mg/kg, po or 1 mg/kg, iv; format: ADME, organism-based; settings: in vivo
[7] = Metabolic stability in mouse hepatocytes assessed as half life measured upto 120 mins; format: ADME, cell-based, Hepatocyte
[8] = Protein binding in human assessed as unbound fraction; format: ADME
[9] = Metabolic stability in mouse hepatocytes assessed as intrinsic clearance; format: ADME, cell-based, Hepatocyte
[10] = Protein binding in mouse brain assessed as unbound fraction; format: ADME, tissue-based
[11] = Protein binding in mouse assessed as unbound fraction; format: ADME
[12] = Half life in mouse at 10 mg/kg, po; format: ADME, organism-based; settings: in vivo
[13] = Half life in mouse at 1 mg/kg, iv; format: ADME, organism-based; settings: in vivo
[14] = Unbound Cmax in mouse at 10 mg/kg, po or 1 mg/kg, iv; format: ADME, organism-based; settings: in vivo
[15] = Bioavailability in mouse at 10 mg/kg, po or 1 mg/kg, iv; format: ADME, organism-based; settings: in vivo
[16] = Apparent permeability across apical to basolateral side in MDCK-MDR1 cells; format: ADME, cell-based, Canis lupus familiaris; settings: dog
[17] = Efflux ratio of apparent permeability in MDCK-MDR1 cells; format: ADME, cell-based, Canis lupus familiaris; settings: dog
[18] = Unbound brain to plasma partition coefficient in mouse at 10 mg/kg, po or 1 mg/kg, iv after 8 hrs; format: ADME, organism-based; settings: read-out: K(p,uu,brain)

Voltage-gated inwardly rectifying potassium channel KCNH2, sequence (Q12809 whole entry): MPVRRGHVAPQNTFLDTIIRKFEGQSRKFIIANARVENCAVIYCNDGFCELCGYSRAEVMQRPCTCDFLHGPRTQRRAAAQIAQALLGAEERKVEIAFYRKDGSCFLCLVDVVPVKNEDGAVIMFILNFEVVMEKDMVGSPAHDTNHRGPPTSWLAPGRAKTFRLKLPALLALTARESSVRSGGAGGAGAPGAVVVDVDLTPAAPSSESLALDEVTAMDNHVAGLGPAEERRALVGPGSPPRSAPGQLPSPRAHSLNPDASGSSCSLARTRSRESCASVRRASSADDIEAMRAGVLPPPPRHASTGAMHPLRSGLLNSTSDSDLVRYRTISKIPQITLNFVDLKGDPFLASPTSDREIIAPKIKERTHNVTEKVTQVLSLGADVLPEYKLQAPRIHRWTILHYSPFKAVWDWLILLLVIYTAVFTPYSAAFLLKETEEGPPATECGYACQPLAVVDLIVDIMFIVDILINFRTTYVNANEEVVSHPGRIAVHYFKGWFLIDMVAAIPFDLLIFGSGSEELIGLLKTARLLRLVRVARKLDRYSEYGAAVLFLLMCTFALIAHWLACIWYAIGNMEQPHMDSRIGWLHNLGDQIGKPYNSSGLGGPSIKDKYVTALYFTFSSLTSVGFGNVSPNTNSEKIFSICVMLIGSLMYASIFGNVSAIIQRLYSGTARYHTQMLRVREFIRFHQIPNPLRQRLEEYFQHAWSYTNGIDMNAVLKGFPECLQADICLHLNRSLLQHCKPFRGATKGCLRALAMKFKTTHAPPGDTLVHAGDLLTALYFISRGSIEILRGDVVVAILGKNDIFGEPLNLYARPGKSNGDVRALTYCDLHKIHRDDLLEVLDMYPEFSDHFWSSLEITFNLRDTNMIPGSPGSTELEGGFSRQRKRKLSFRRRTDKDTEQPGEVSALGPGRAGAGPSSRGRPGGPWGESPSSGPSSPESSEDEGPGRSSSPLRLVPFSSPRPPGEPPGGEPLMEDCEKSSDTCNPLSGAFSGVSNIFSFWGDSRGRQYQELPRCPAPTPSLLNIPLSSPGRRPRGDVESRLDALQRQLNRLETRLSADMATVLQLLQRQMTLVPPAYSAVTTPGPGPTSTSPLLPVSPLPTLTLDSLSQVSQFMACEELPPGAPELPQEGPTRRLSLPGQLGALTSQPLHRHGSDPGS

Structure (SMILES) | pEC50 [1] | pIC50 [2] | also measured
N[C@H]1C[C@@]2(CN=C(N3CCc4ccccc4[C@@H]3c3ccc(F)cc3)O2)C1 | 6.28 |  | 
Fc1ccc([C@H]2c3ccccc3CCN2C2=NC[C@H]3CNCC[C@H]3O2)cc1 | 6.47 |  | 
Fc1ccc([C@H]2c3ccccc3CCN2C2=N[C@@H](C3CN4CCC3CC4)CO2)cc1 (stereo partly specified) | 6.64 |  | 
Fc1ccc([C@H]2c3ccccc3CCN2C2=NC[C@@H]3NCC[C@@H]3O2)cc1 | 6.34 |  | 
Fc1ccc([C@H]2c3ccccc3CCN2C2=NC[C@H](C3CN4CCC3(F)CC4)O2)cc1 (stereo partly specified) | < 5.00 |  | 
Fc1ccc([C@H]2c3ccccc3CCN2C2=N[C@H]3CNC[C@H]3O2)cc1 | 6.29 |  | 
Fc1ccc([C@H]2c3ccccc3CCN2C2=NC[C@@H](C3CN4CCC3(F)CC4)O2)cc1 (stereo partly specified) | 6.42 |  | 
CN(C)[C@H]1CC[C@@]2(CN=C(N3CCc4ccccc4[C@@H]3c3ccc(F)cc3)O2)C1 | 6.63 | 5.44 | 
Fc1ccc([C@H]2c3ccccc3CCN2C2=NC[C@]3(CCNC3)O2)cc1 | 7.68 |  | 
CN1CC[C@]2(CN=C(N3CCc4ccccc4[C@@H]3c3ccc(F)cc3)O2)C1 | 7.16 | 6.29 | 
Fc1ccc([C@H]2c3ccccc3CCN2C2=NC[C@H]([C@@H]3CCNC3)O2)cc1 | 6.68 | 5.17 | 
Fc1ccc([C@H]2c3ccccc3CCN2C2=N[C@H](C3CN4CCC3CC4)CO2)cc1 (stereo partly specified) | 6.90 |  | 
Fc1ccc([C@H]2c3ccccc3CCN2C2=NC[C@@H](C3(F)CNC3)O2)cc1 | 6.88 | 5.44 | Vdss [3]: 12.2 L/kg; half-life [4]: > 2 h; CLH [5]: < 14.7 µL/min/mg; CL [6]: 89.3 mL/min/kg; half-life [7]: > 2 h; fraction unbound [8]: 0.068; CLH [9]: < 68.2 µL/min/mg; fraction unbound [10]: 0.01; fraction unbound [11]: 0.021; half-life [12]: 2.6 h; half-life [13]: 2.2 h; fCmax [14]: 11 nM; bioavailability [15]: 38%; Papp A→B [16]: 0.87 ×10⁻⁶ cm/s; efflux ratio [17]: 1.07; Kp uu at 8 h [18]: 8.33
Fc1ccc([C@H]2c3ccccc3CCN2C2=N[C@@H](C3(F)CNC3)CO2)cc1 | 6.92 | 5.00 | 
N[C@@H]1CC[C@]2(CN=C(N3CCc4ccccc4[C@@H]3c3ccc(F)cc3)O2)C1 | 6.63 |  | 
Fc1ccc([C@H]2c3ccccc3CCN2C2=NC[C@]3(CCCNC3)O2)cc1 | 7.19 |  | 
N[C@@H]1CC[C@@]2(CN=C(N3CCc4ccccc4[C@@H]3c3ccc(F)cc3)O2)C1 | 6.92 | 5.06 | 
CN(C)[C@H]1CC[C@]2(CN=C(N3CCc4ccccc4[C@@H]3c3ccc(F)cc3)O2)C1 | 6.86 | 5.11 | 

Continued by rising pEC50 [1], values first:

pEC50 [1] | Structure (SMILES) | pIC50 [2] | also measured
6.00 | NC[C@H]1C[C@@]2(CN=C(N3CCc4ccccc4[C@@H]3c3ccc(F)cc3)O2)C1 |  | 
6.18 | Fc1ccc([C@H]2c3ccccc3CCN2C2=NC[C@@H]3NCC[C@H]3O2)cc1 |  | 
6.30 | Fc1ccc([C@H]2c3ccccc3CCN2C2=NC[C@@]3(CCCNC3)O2)cc1 |  | 
6.56 | Fc1ccc([C@H]2c3ccccc3CCN2C2=N[C@H]3CNC[C@H]3CO2)cc1 | 5.48 | 
6.68 | CN(C)[C@H]1C[C@@]2(CN=C(N3CCc4ccccc4[C@@H]3c3ccc(F)cc3)O2)C1 | 5.15 | 
6.75 | CN1CC[C@@]2(CN=C(N3CCc4ccccc4[C@@H]3c3ccc(F)cc3)O2)C1 | 5.77 | 
6.80 | N[C@H]1CC[C@]2(COC(N3CCc4ccccc4[C@@H]3c3ccc(F)cc3)=N2)C1 |  | 
6.90 | N[C@H]1CC[C@@]2(CN=C(N3CCc4ccccc4[C@@H]3c3ccc(F)cc3)O2)C1 |  | 
6.96 | N[C@H]1CC[C@]2(CN=C(N3CCc4ccccc4[C@@H]3c3ccc(F)cc3)O2)C1 |  | 
7.01 | Fc1ccc([C@H]2c3ccccc3CCN2C2=NC[C@@H](C3CNC3)O2)cc1 | 5.21 | 
7.23 | Fc1ccc([C@H]2c3ccccc3CCN2C2=NCC3(CCNCC3)O2)cc1 |  | 
